Measured values from paper PMC12865225 (Clinical and Translational Science, 2026).

Legend:
OAT2 = tested on: T1, OAT2; experiment: Uptake transport assay in OAT2-expressing HEK293 cells; format: cell-based, human; conditions: 2 and 50 μM, 10 min
T1 construct: expressed in transfected cells; host or cells: HEK293 (recombinant baculovirus-mediated transduction)
Experimental: The human transporters OATP1B1, OATP1B3, OATP2B1, and OAT1‐OAT4 and a negative control protein (enhanced yellow fluorescent protein, eYFP) were transiently expressed in human embryonic kidney 293 (HEK293) cells by recombinant baculovirus‐mediated transduction. Baculoviruses carrying human genes for the transporters were prepared as reported previously. HEK293 cells were cultured in DMEM containing 10% fetal bovine serum at 37°C and 5% CO2 and passaged two to three times per week. For the transport studies, 0.05 × 10^6 cells for 48‐well plates (OATPs) or 0.06 × 10^6 cells for 24‐well plates (OATs) were seeded onto cell‐culture treated well plates coated with poly‐D‐lysine. After 1 day, cells were transduced to produce recombinant proteins by changing media to DMEM containing 30 μL (48‐well plates) or 60 μL (24‐well plates) of recombinant baculovirus and 3 mM (OATs) or 5 mM (OATPs) sodium butyrate in a total media volume of 500 μL. The cells were cultured for a further 2 days before the transport assays.
For the transport studies, media were removed and cells were washed once with warm transport uptake buffer (TP‐buffer—pH 7.4 HBSS with 25 mM HEPES and 4 mM sodium bicarbonate). Each experiment included triplicate (OATP) or duplicate (OAT) samples for every test condition. […]

[1] = cited from earlier work; for Cmax: 1000 mg dose, read-out: total C max; for unbound fraction in plasma: static model input
BCRP = target: T2, BCRP (Homo sapiens, UniProt Q9UNQ0); experiment: Efflux transport assay in BCRP HEK293 membrane vesicles; format: biochemical; conditions: 5 and 50 µM
T2 construct: made in house; host or cells: membrane vesicles from HEK293 cells expressing the transporter
T2 sequence (Q9UNQ0 1-655): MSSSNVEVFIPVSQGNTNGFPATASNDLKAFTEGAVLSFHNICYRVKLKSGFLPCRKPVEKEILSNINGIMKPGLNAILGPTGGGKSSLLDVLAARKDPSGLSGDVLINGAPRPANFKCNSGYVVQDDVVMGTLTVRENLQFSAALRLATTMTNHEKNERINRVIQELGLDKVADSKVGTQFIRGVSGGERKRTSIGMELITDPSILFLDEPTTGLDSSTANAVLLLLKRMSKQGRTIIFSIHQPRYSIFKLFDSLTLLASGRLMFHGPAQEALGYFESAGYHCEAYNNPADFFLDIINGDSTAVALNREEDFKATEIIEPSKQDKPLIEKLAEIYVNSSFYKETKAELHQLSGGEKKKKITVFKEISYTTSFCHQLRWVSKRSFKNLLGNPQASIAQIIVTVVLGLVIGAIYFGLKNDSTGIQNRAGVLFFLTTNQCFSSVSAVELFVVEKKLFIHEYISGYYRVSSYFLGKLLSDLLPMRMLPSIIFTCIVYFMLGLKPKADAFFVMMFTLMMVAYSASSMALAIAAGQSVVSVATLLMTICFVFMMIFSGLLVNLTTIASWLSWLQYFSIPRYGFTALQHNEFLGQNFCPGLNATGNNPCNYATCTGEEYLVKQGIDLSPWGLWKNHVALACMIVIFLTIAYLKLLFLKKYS
Experimental: Membrane vesicles, 5 μL (7.5 μg of total protein), prepared as previously reported, were aliquoted to wells of a conical‐shaped 96‐well plate. The plate was incubated for 10 min at +37°C before the initiation of transport by adding 25 μL of TS‐buffer (10 mM Tris, 250 mM sucrose, pH adjusted to 7.4 with HEPES) containing magnesium chloride (10 mM final in the reaction), adenosine triphosphate (ATP) or adenosine monophosphate (AMP), 4 mM final in the reaction, and the transporter substrate and inhibitor. Each experiment included triplicate samples for both ATP and AMP samples. The concentrations of rosuvastatin and N‐methyl‐quinidine were 1 μM in the BCRP and P‐gp vesicle inhibition assays, respectively. […] The transport reactions were quenched by adding 200 μL of cold TS‐buffer to each well and transferring the samples to a 96‐multiwell 1.0 μm glass fiber filter plate (Merck Millipore, Darmstadt, Germany) kept under vacuum. Wells were further washed four times with cold TS‐buffer, after which the plate was dried under vacuum. The compounds were eluted from the plate by applying 100 μL of 75% methanol containing 0.1% formic acid to each well and incubating at 250 RPM for 30 min before centrifuging the samples to an analysis plate at 2800 g for 2 min. For the rosuvastatin samples, the elution solvent contained rosuvastin‐d6 as the internal standard. […]

transport by OAT2 (OAT2) | transport by BCRP (BCRP) | Compound | Cmax [1] [µM] | unbound fraction in plasma [1]
transported | did not transport | Cc1onc(-c2c(Cl)cccc2Cl)c1C(=O)N[C@@H]1C(=O)N2[C@@H]1SC(C)(C)[C@@H]2C(=O)O [Dicloxacillin] | 67 | 0.02
transported | did not transport | Cc1onc(-c2c(F)cccc2Cl)c1C(=O)N[C@@H]1C(=O)N2[C@@H]1SC(C)(C)[C@@H]2C(=O)O [Flucloxacillin] | 46 | 0.06
